# Measurements as given in US10086010B2 (STC.UNM, priority 2014, dated 2018).
# Like-named read-outs stand apart in the source and are kept apart here.
# Assays:
# HT-29 cells [1] = assay: CyQUANT cell proliferation assay; format: cell-based, human; settings: 3AB present with 5-FU and hmUdR for 72 h
# Experimental: Cell proliferation assays measuring genomic DNA were carried out using the CyQUANT kit (Invitrogen). In these experiments, the cells after drug treatments were replated to grow in the absence of the drugs for six days, and their nucleic acids was quantitated by CyQUANT assay. These assays were also conducted in triplicate.
# HT-29 cells [2] = assay: WST-1 cell growth/viability assay, HT-29; format: cell-based, human; settings: for effect of PARP inhibitor on the reduction in succinate-tetrazolium reductase activity by 5-FU and hmUdR: inhibitor added simultaneously with 5-FU and hmUdR; for GI50: Homo sapiens, HT-29, 72 h, 72 hours
# Experimental: Indicated concentrations of drugs were added to wells one day after seeding. […] Cell proliferation was quantitated by measuring 450 nm absorbance and 600 nm as a background. All assays were performed in triplicate. […] The minimal combination index […] for each cell line was obtained from the isobologram parameters.
# HT-29 cells [3] = assay: Cell cycle analysis by flow cytometry; format: cell-based, human
# Experimental: HT-29 cells that were seeded at 2×10^6 cells/plate in 10 cm dishes and incubated with 20 ng/ml nocodazole for 18 h. […] The synchronized cells were washed with PBS prior to the addition of fresh medium containing the indicated nucleosides and/or bases.
# Cells grown in 10 cm dishes were trypsinized, spun down and suspended in 10 ml PBS containing 0.5% FBS. […], the cells were resuspended in 0.5 ml PBS/0.5% FBS, and fixed in 5 ml 70% ethanol at −20° C. […] and washing with 10 ml PBS/0.5% FBS, the cells were suspended in 1.5 ml PBS/0.5% FBS containing 10 μg/ml propidium iodide and 50 μg/ml RNase A, and incubated at 37° C. for 30 min. Cell cycle distribution was analyzed with a FACScan flow analyzer (Becton Dickinson).
# HT-29 cells [4] = assay: Alkaline comet assay (single-strand breaks); format: cell-based, human; settings: 48 h; for number of DNA single-strand breaks: 0.5 μM 5-FU and/or 5 μM hmUdR
# Experimental: (§1) After incubation for indicated time periods (12-48 h), the cells were trypsinized and washed in PBS. For time course experiments, cells harvested at each time point were stored in 10% DMSO/40% DMEM/50% FBS at −80° C. until slide processing. Approximately 5,000 cells were spread in 0.9% low-melting point agarose/PBS on CometSlide (Trevigen), and chilled at 4° C. in the dark for 20 min.
# For alkaline comet assay, slides were soaked in precooled lysis buffer containing 2.5 M NaCl/100 mM EDTA/10 mM Tris/1% sarkosyl/1% Triton X-100 at 4° C. for 45 min, followed by soaking in precooled 300 mM NaOH/1 mM EDTA at 4° C. for 45 min. Subsequently, slides were electrophoresed in 300 mM NaOH/1 mM EDTA at 1.4 V/cm for 20 min at 4° C., washed in 70% ethanol for 5 min, and allowed to dry in the dark. Cellular DNA was stained with 1×SYBR Green I (Molecular Probes) 30 min before analysis with a fluorescence microscope. Alkaline comet assays were performed in triplicate and more than 30 comets for each condition were photographed at the Light Microscope Facility at Fox Chase Cancer Center, and analyzed by CometScore software (TriTek).
# HT-29 cells [5] = assay: Neutral comet assay (double-strand breaks); format: cell-based, human; settings: 0.5 μM FU and/or 5 μM hmUdR, 48 h
# Experimental: as §1
# For neutral comet assay, slides were soaked in precooled lysis buffer at 4° C. for 30 min, followed by washing in precooled 1×TBE buffer (90 mM Tris-borate, pH8.3, 2 mM EDTA). Slides were electrophoresed in 1×TBE buffer at 2 V/cm for 20 min at 4° C., rinsed in deionized water, washed in 70% ethanol for 5 min, and allowed to dry in the dark. Subsequently, slides were processed as above for DNA staining and comet analyses. Neutral comet assays were conducted in duplicate, in each of which more than 60 comets for each condition were analyzed.
# human CRC HT-29 cells = assay: Cell growth assay, Example 2; format: cell-based
# HT-29 cellular DNA = assay: Quantitation of 5-FU and hmUdR incorporated into cellular DNA; format: cell-based, human; settings: at 48 h
# Experimental: [6-^3H]-5-FU (18 Ci/mmol) and of [^3H]-hmUdR (10 Ci/mmole) were purchased from Moravek Biochemicals. […] At 24 or 48 h after drug addition, cells were washed with PBS and their DNA was recovered with Trizol (Invitrogen) according to the manufacturer's instruction. Subsequently the recovered DNA was quantitated by 260 nm absorbance, and its radioactivity was measured by liquid scintillation counting.
# [6] = tested on: HT-29 cells expressing GFP-H2B; assay: Time-lapse microscopy of cell divisions; format: cell-based, human; settings: 0.5 μM 5-FU and/or 5 μM hmUdR
# Experimental: HT-29 cells were infected with a retroviral vector for expression of […] histone H2B. HT-29 cells expressing GFP-H2B were seeded at 2×10^5 cells/well in 6-well plates. On the following day, drug treatments were initiated and cell proliferation was monitored by time-lapse microscopy. Image acquisition was done at the Light Microscope Facility at Fox Chase Cancer Center using phase-contrast and GFP-specific fluorescence microscopy (Nikon TE2000S) controlled by Metamorph (Molecular Devices). Images were captured at a rate of one frame per 15 minutes for 60 hours, in which cells were kept at 37° C. Images were captured from 10 areas per well. The number of cell divisions that occurred in each area was counted for the first 24 h and the second 24 h periods.
# PARP1 = assay: Immunoblot detection of PARP1 cleavage; format: cell-based, human; settings: 5-FU and hmUdR 72 h; control 50 μM LY294002 1 h followed by 4 h 100 μg/ml TRAIL
# Experimental: After […] on ice, cells were scraped and […] for 10 min at 4° C. The supernatant was recovered. This whole cell extract (50 μg protein) was subjected to SDS-containing polyacrylamide gel electrophoresis, and transferred to Immobilon-P membrane (Millipore). For detection of poly(ADP-ribose), the nuclear pellet was recovered after removing the whole cell extract as prepared above except that the lysis buffer was supplemented with 50 μM ethacridine, an inhibitor of poly(ADP-ribose) glycohydrolase. 10 μg protein of the nuclear pellet was subjected to gel electrophoresis and transfer to membrane as described above. Primary antibodies used in this study were anti-PARP1 monoclonal mouse antibody (Trevigen), anti-p62 polyclonal rabbit antibody (Santa Cruz Biotechnology), anti-LC3 polyclonal rabbit antibody (Novus Biologicals), anti-β-actin monoclonal mouse antibody (Sigma), and anti-PCNA monoclonal antibody (PC10; Santa Cruz Biotechnology), anti-poly(ADP-ribose) mouse monoclonal antibody (Tulip Biolabs). […] Immunoblot signals were detected either by Odyssey Imaging System (LI-COR Biotechnology) or by exposure of X-ray films to the membrane soaked in ECL reagent (GE Healthcare).
# [7] = 0.5 μM 5-FU + 5 μM hmUdR, WST-1
# [8] = 5 mM caffeine for the last 24 h
molecule,measurement,setting,value
"NC(=O)c1cccc(N)c1 [3AB, 3-aminobenzamide]",rescue of the effect of 5-FU and hmUdR on cell proliferation (CyQUANT),HT-29 cells [1],did not rescue
same,effect of PARP inhibitor on the reduction in succinate-tetrazolium reductase activity by 5-FU and hmUdR,HT-29 cells [2],partially corrected
same,effect of 3AB on the S phase arrest induced by 5-FU and hmUdR,HT-29 cells [3]; 3 mM 3AB added simultaneously with 0.5 μM 5-FU and 5 μM hmUdR,enabled most cells to progress through S phase to G2/M
same,effect of 3AB on the number of strand breaks caused by 5-FU and hmUdR,"HT-29 cells [4]; 3 mM 3AB, 0.5 μM 5-FU, 5 μM hmUdR",significantly decreased
"O=c1[nH]cc(F)c(=O)[nH]1 [5-FU, 5-fluorouracil]",number of double strand breaks,HT-29 cells [5],no significant effect
same,effect on HT-29 cell growth of increasing concentration in the absence of fdU,human CRC HT-29 cells,minimal effect
same,GI50,"HT-29 cells [2]; read-out: GI50 of HT-29 cells for 5-FU, 5-FU alone",19 µM
same,GI50,"HT-29 cells [2]; read-out: GI50 of HT-29 cells for 5-FU, combined with hmUdR",< 0.1 µM
same,cells accumulated in S phase,"HT-29 cells [3]; unsynchronized HT-29 cells, 0.5 μM 5-FU and/or 5 μM hmUdR, 48 h",52%
same,number of DNA single-strand breaks,HT-29 cells [4],did not significantly increase
same,incorporation of 5-FU into cellular DNA in the presence of hmUdR,HT-29 cellular DNA,decreased
O=c1[nH]cc(CO)c(=O)[nH]1 [5-hydroxymethyluracil],enhancement of 5-FU activity / synergy with 5-FU,"HT-29 cells [2]; HT-29, 72 hours",did not significantly enhance
C[C@]1(c2nc3c(C(N)=O)cccc3[nH]2)CCCN1 [ABT-888],effect of PARP inhibitor on the reduction in succinate-tetrazolium reductase activity by 5-FU and hmUdR,HT-29 cells [2],partially corrected
CN1C(=O)C(Cc2c[nH]c3ccccc23)NC1=S (stereo not shown) [Nec-1],effect of necroptosis inhibitor on the growth inhibition effect of 5-FU and hmUdR,HT-29 cells [2]; [7],did not reduce
"COC(=O)CC(NC(=O)C(NC(=O)c1ccc2ccccc2n1)C(C)C)C(=O)COc1c(F)cccc1F (stereo not shown) [QVD, Quinolyl-valyl-O-methylaspartyl-[-2,6-difluorophenoxy]-methyl ketone]",effect of caspase inhibitor on the growth inhibition effect of 5-FU and hmUdR,HT-29 cells [2]; [7],did not diminish
"O=c1ccn([C@H]2C[C@H](O)[C@@H](CO)O2)c(=O)[nH]1 [UdR, 2′-deoxyuridine]",enhancement of 5-FU activity / synergy with 5-FU,"HT-29 cells [2]; HT-29, 72 hours",neither UdR nor heUdR significantly enhanced
Cn1c(=O)c2c(ncn2C)n(C)c1=O [caffeine],effect of caffeine on the S phase arrest induced by 5-FU alone,HT-29 cells [3]; [8],abolished
same,effect of caffeine on the S phase arrest induced by the combination of 5-FU and hmUdR,HT-29 cells [3]; [8],resistant
same,"effect of caffeine on the G2/M arrest of cells incubated with 3AB, 5-FU and hmUdR",HT-29 cells [3]; unsynchronized HT-29 cells,partially released the G2/M arrest
"O=Cc1cn([C@H]2C[C@H](O)[C@@H](CO)O2)c(=O)[nH]c1=O [foUdR, 5-formyl-2′-deoxyuridine]",activity with 5-FU relative to hmUdR,"HT-29 cells [2]; HT-29, 72 hours",comparable
same,enhancement of 5-FU activity / synergy with 5-FU,"HT-29 cells [2]; HT-29, 72 hours",acted synergistically
"O=c1[nH]c(=O)n([C@H]2C[C@H](O)[C@@H](CO)O2)cc1O [hUdR, 5-hydroxy-2′-deoxyuridine]",enhancement of 5-FU activity / synergy with 5-FU,"HT-29 cells [2]; HT-29, 72 hours","to a lesser extent, hUdR (FIG. 5E) acted synergistically"
"O=c1[nH]c(=O)n([C@H]2C[C@H](O)[C@@H](CO)O2)cc1CCO [heUdR, 5-hydroxyethyl-2′-deoxyuridine]",enhancement of 5-FU activity / synergy with 5-FU,"HT-29 cells [2]; HT-29, 72 hours",neither UdR nor heUdR significantly enhanced
"O=c1[nH]c(=O)n([C@H]2C[C@H](O)[C@@H](CO)O2)cc1CO [hmUdR, 5-Hydroxymethyl-2′-deoxyuridine]",number of double strand breaks,HT-29 cells [5],increased
same,"number of cell divisions per view field, second 24 h period relative to first 24 h period",[6],1.4±0.2 times
same,cell cycle distribution,"HT-29 cells [3]; unsynchronized HT-29 cells, 5 μM hmUdR alone, 48 h",did not change the cell cycle distribution
same,number of DNA single-strand breaks,HT-29 cells [4],did not significantly increase
"TRAIL: used with LY294002 as positive control for PARP1 cleavage; known to cause apoptosis (protein, UniProt P50591 1-281, looked up) Tumor necrosis factor ligand …: MAMMEVQGGPSLGQTCVLIVIFTVLLQSLCVAVTYVYFTNELKQMQDKYSKSGIACFLKEDDSYWDPNDEESMNSPCWQVKWQLRQLVRKMILRTSEETISTVQEKQQNISPLVRERGPQRVAAHITGTRGRSNTLSSPNSKNEKALGRKINSWESSRSGHSFLSNLHLRNGELVIHEKGFYYIYSQTYFRFQEEIKENTKNDKQMVQYIYKYTSYPDPILLMKSARNSCWSKDAEYGLYSIYQGGIFELKENDRIFVSVTNEHLIDMDHEASFFGAFLVG",PARP1 cleavage (characteristic of apoptosis),PARP1,induced
